From patent US7919680B2, “Nucleic acids encoding anthelmintic agents and plants made therefrom” (Divergence, Inc., priority 2004, dated 2011)

Key:
[1] = tested on: C. elegans; assay: Nematicidal activity of methyl ester, salt and free fatty acid emulsions vs. C. elegans N2s (Table 3); format: in vivo, Caenorhabditis elegans
From the text: Nematicidal Activity of Single Fatty Acid Methyl Ester, Salt and Free Fatty Acid Emulsions Against Caenorhabditis elegans […] and Dauers

[2] = tested on: C. elegans dauers; assay: Nematicidal activity of methyl ester, salt and free fatty acid emulsions vs. C. elegans dauers (Table 4); format: in vivo, Caenorhabditis elegans
[3] = tested on: P. scribneri; assay: Nematicidal activity of fatty acid methyl ester emulsions, nematode spectrum (Table 6); format: in vivo, Pratylenchus scribneri; conditions: P. scribneri mixed stage
Description: (§1) Briefly, the indicated fatty acid emulsions were added to nematodes in wells of a 24-well plate and rapidly mixed by swirling. […] Results shown are mean % values obtained from multiple independent experiments
(§2) The Caenorhabditis elegans were mixed stage populations. Similar effects were seen on several other free-living nematode species. The Parastrongyloides trichosuri (parasite of Australian bushtail possum) were dauer-like infective 3rd stage larva. Similar effects are also seen against free-living stages. The Meloidogyne incognita and Meloidogyne javanica (root knot nematode) were 2nd stage juveniles (dauer-like infective stage). The Heterodera glycines (soybean cyst nematode) were 2nd stage juveniles (dauer-like infective stage). Finally, the Pratylenchus scribneri (corn lesion nematode) were mixed stage populations.

[4] = tested on: M. incognita; assay: as above; format: in vivo, Meloidogyne incognita; conditions: M. incognita 2nd stage juveniles, head 24 hr, b171 48 hours
Description: as §1, §2

[5] = tested on: M. javanica; assay: as above; format: in vivo, Meloidogyne javanica; conditions: M. javanica 2nd stage juveniles, head 24 hr, b171 48 hours
Description: as §1, §2

[6] = tested on: P. trichosuri; assay: as above; format: in vivo, Parastrongyloides trichosuri; conditions: P. trichosuri infective 3rd stage larva
Description: as §1, §2

[7] = tested on: C. elegans; assay: Nematicidal activity of fatty acid methyl ester emulsions against C. elegans (Table 2)
[8] = tested on: M. incognita; assay: Nematicidal activity of fatty acid methyl ester emulsions against root knot nematode J2 larvae (Table 5); format: in vivo; conditions: 0.1% emulsion; 48 hours incubation, counted about 24 hours after transfer to plates
Description: (§3) M. incognita and M. javanica were prepared from tomato roots. The roots were bleached and the debris was separated from the J2 larvae and eggs by filtration followed by sucrose density gradient centrifugation. Eggs were hatched over 4 days at 15° C. and the J2 larvae were collected by passage though a filter, followed by centrifugation.
(§4) Nematodes and emulsions were incubated with shaking at room temperature for 48 hours. The contents of each well were transferred to a small spot on individual NGM plates lacking bacteria. About 24 hours after the transfer to plates, worms on and off the inoculation spot were counted as not viable or viable, respectively. Worms were considered viable if they had crawled away from the inoculation spot, or if they were moving. Worms were considered non-viable if they remained at the inoculation spot.

[9] = tested on: M. javanica; assay: as above; format: in vivo; conditions: 0.1% emulsion; 48 hours incubation, counted about 24 hours after transfer to plates
Description: as §3, §4

[10] = tested on: C. elegans; assay: Nematicidal activity of fatty acid methyl ester emulsions, nematode spectrum (Table 6); format: in vivo, Caenorhabditis elegans; conditions: C. elegans mixed stage
Description: as §1, §2

[11] = tested on: H. glycines; assay: as above; format: in vivo, Heterodera glycines; conditions: H. glycines 2nd stage juveniles, head 24 hr, b171 48 hours
Description: as §1, §2

[12] = tested on: C. elegans; assay: Rescue of delta-12 fat2 RNAi feeding phenotype by fatty acid methyl esters; format: in vivo; conditions: for rescue of the delta-12 fat2 RNAi feeding phenotype: 3 mM added to NGM media
From the text: RNAi by feeding: C. elegans can be grown on lawns of E. coli genetically engineered to produce double stranded RNA (dsRNA) designed to inhibit delta-12 fat2 expression. Briefly, E. coli were transformed with a genomic fragment of a portion of the C. elegans fat2 gene sequence, specifically a fragment 651 nucleotides long, containing the entire first exon and terminating just before the conserved intron splice junction between the first exon and first intron. This construct encodes approximately the first 217 amino acids of the C. elegans delta-12 fat2 gene. The 651 nucleotide genomic fragment was cloned into an E. coli expression vector between opposing T7 polymerase promoters. The clone was then transformed into a strain of E. coli that carries an IPTG-inducible T7 polymerase. As a control, E. coli was transformed with a gene encoding the Green Fluorescent Protein (GFP). Feeding RNAi was initiated from C. elegans eggs or from C. elegans L4s. […] The sequence of the fat2 gene is of sufficiently high complexity (i.e., unique) such that the RNAi is not likely to represent cross reactivity with other genes.
The C. elegans delta-12 fatty acid desaturase (FAT-2 protein) converts the mono-unsaturated oleic acid to the di-unsaturated fatty acid linoleic acid. The delta-12 fat2 RNAi prevents expression of the delta-12 fatty acid desaturase, which is predicted to cause a decrease in levels of linoleic acid in the nematode, leading to arrested development and death.

[13] = tested on: wide spectrum of divergent nematode genera; assay: Summary of Table 6: free-living, animal parasitic and plant parasitic nematodes; format: in vivo
Description: as §1

[14] = tested on: tomato seedlings; assay: Phytotoxicity evaluation of fatty acid methyl esters on tomato seedlings; format: in vivo; conditions: for phytotoxic effects on tomato seedlings: 250 μl of 1% emulsion at stem-media interface of two-week seedlings
Description: Sterilized tomato seeds were germinated in magenta jars containing Gamborg's agar media. After two weeks of growth, seedlings were treated with 250 μl of 1% fatty acid methyl ester emulsion (nonanoic acid, ricinoleic acid, ricinelaidic acid, oleic acid, or a control emulsion lacking any fatty acid), applied directly to the stem-media interface. Tomato seedlings were scored at various times after application of emulsions.

SMILES	worm death ([1]; 0.01% emulsion) [%]	worm death ([1]; 0.1% emulsion) [%]	worm death ([1]; 0.001% emulsion) [%]	worm death ([2]; 0.01% emulsion) [%]	worm death ([2]; 0.1% emulsion) [%]	Percentage of Worm Death 1 hr ([7]; 0.003% emulsion)	Percentage of Worm Death 6 hr ([7]; 0.003% emulsion)	Percentage of Worm Death 24 hr ([7]; 0.003% emulsion)	Percentage of Worm Death 1 hr ([7]; 0.1% emulsion)	Percentage of Worm Death 6 hr ([7]; 0.1% emulsion)	Percentage of Worm Death 24 hr ([7]; 0.1% emulsion)	further results
CCCCCC[C@@H](O)C/C=C/CCCCCCCC(=O)[O-].[Na+] [Sodium Re*, sodium salt of ricinelaidic acid]	100	100										
CCCCC/C=C\C/C=C\CCCCCCCC(=O)O [L free acid, linoleic acid, reference compound]	<5	10	<5	40	50							
CCCCCC[C@@H](O)C/C=C/CCCCCCCC(=O)O [Re free acid*, ricinelaidic acid]	98	100	40	75	75							
CCCCCC1OC1C/C=C\CCCCCCCC(=O)OC (stereo in doubt) [Vernolic Acid (C18-methyl ester), vernolic acid methyl ester]						20%	20%	20%	65%	65%	75%	% Worm Death (24 hr) ([3]; 0.01% solution): <20%; % Worm Death (24 hr) ([3]; 0.1% solution): <20%; % Worm Death (24 hr) ([4]; 0.01% solution): 73%; % Worm Death (24 hr) ([4]; 0.1% solution): 98%; % Worm Death (24 hr) ([5]; 0.01% solution): 60%; % Worm Death (24 hr) ([5]; 0.1% solution): 90%; % Worm Death (24 hr) ([6]; 0.01% solution): ~90%; % Worm Death (24 hr) ([6]; 0.1% solution): ~95%; M. incognita (% not viable) [8]: 100%; M. javanica (% not viable) [9]: 90%; % Worm Death (24 hr) ([10]; 0.001% solution): 30%; % Worm Death (24 hr) ([10]; 0.01% solution): 50%; % Worm Death (24 hr) ([10]; 0.1% solution): 80%; % Worm Death (24 hr) ([11]; 0.001% solution): 18%; % Worm Death (24 hr) ([11]; 0.01% solution): 20%; % Worm Death (24 hr) ([11]; 0.1% solution): 30%
CCCCCCCC/C=C\CCCCCCCC(=O)OC [Oleic Acid (C18-methyl ester), oleic acid methyl ester]						0-5%	0-5%	0-5%	0-5%	0-5%	0-5%	rescue of the delta-12 fat2 RNAi feeding phenotype [12]: does not rescue
CCCCCC[C@@H](O)C/C=C/CCCCCCCC(=O)OC [Re ME, ricinelaidic acid methyl ester]	100	100	80	100	100							% Worm Death (24 hr) ([3]; 0.01% solution): ~40%; % Worm Death (24 hr) ([3]; 0.1% solution): ~70%; % Worm Death (24 hr) ([4]; 0.001% solution): 97%; % Worm Death (24 hr) ([4]; 0.01% solution): ~99%; % Worm Death (24 hr) ([4]; 0.1% solution): ~99%; % Worm Death (24 hr) ([5]; 0.001% solution): ~60%; % Worm Death (24 hr) ([5]; 0.01% solution): 100%; % Worm Death (24 hr) ([5]; 0.1% solution): 100%; % Worm Death (24 hr) ([6]; 0.01% solution): 100%; % Worm Death (24 hr) ([6]; 0.1% solution): 100%; nematicidal activity ([13]; concentrations of 0.1% and 0.01%): strongly nematicidal; breadth of nematicidal activity ([13]; summary of Table 6): favorable nematicidal activity against a wide spectrum of divergent nematode genera; % Worm Death (24 hr) ([10]; 0.001% solution): 75%; % Worm Death (24 hr) ([10]; 0.01% solution): 100%; % Worm Death (24 hr) ([10]; 0.1% solution): 100%; % Worm Death (24 hr) ([11]; 0.001% solution): 100%; % Worm Death (24 hr) ([11]; 0.01% solution): 100%; % Worm Death (24 hr) ([11]; 0.1% solution): 100%; phytotoxic effects on tomato seedlings [14]: low phytotoxicity
CCCCCC[C@@H](O)C/C=C\CCCCCCCC(=O)[O-].[K+] [Potassium R, potassium salt of ricinoleic acid]	15	90	5	20	75							
CCCCCCCCC(=O)OC [Nonanoic (C9-methyl ester), pelargonic acid methyl ester]	100	100	30			50%	50%	50%	100%	100%	100%	"stun" effect ([7]; 0.003% emulsion, many nematodes recover several hours post inoculation): temporarily “stunned”; nematicidal activity ([7]; concentration of 0.1%): strongly nematicidal; onset of effect on nematode movement and death ([7]; emulsion, Table 2): almost immediate cessation of nematode movement and subsequent death; time to almost entire bleaching and near total collapse ([14]; 250 μl of 1% emulsion): ≤ 24 h; phytotoxic effects on tomato seedlings [14]: obvious phytotoxic effects
CCCCC/C=C\C/C=C\CCCCCCCC(=O)OC [Linoleic Acid (C18-methyl ester), linoleic acid methyl ester]	<5	<5	<5	20	40	0-5%	0-5%	0-5%	0-5%	0-5%	0-5%	rescue of the delta-12 fat2 RNAi feeding phenotype [12]: partial rescue; P0 phenotype ([12]; fat2 RNAi feeding starting with L4 larvae, 3 mM fatty acid methyl ester in NGM media): Reduced egg laying
